Consider 11 compounds from publication PMC7294525 (Cell Research, 2020).

Assay [1] addresses SARS-CoV-2 main protease (M^pro) (Severe acute respiratory syndrome coronavirus 2, UniProt P0DTD1). Briefly: biochemical. To be noted: for inhibition at 20 µM: read-out: inhibition against M^pro.
Assay [2] relates to SARS-CoV 3CL^pro (M^pro). Conditions: read-out: IC50 against SARS-CoV 3CL^pro (M^pro); cited from earlier work.
In assay [3] the target is EV-A71 3C protease (Human enterovirus 71, UniProt Q66478). Briefly: biochemical.
EV-A71 3C protease, sequence (Q66478 1549-1731): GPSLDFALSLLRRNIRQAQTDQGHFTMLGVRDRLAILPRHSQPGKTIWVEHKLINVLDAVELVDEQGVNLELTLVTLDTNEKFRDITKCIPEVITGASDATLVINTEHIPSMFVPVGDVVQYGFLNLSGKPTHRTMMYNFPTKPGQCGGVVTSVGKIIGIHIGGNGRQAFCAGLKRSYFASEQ
In assay [4] the target is T1, EV-A71 2A protease (Human enterovirus 71, UniProt Q66478).
T1 sequence (Q66478 863-1012 limits assumed): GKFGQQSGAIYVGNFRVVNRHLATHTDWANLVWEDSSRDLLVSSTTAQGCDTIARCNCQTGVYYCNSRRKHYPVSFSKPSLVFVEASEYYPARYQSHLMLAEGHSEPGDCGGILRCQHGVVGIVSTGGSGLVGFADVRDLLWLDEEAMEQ
Briefly: biochemical.

Assay [5] deals with influenza virus A/California/07/2009 (H1N1). Briefly: Influenza A virus plaque reduction assay. The assay is classed as cell-based. To be noted: read-out: A/California/07/2009 (H1N1) antiviral activity (EC50).
The target in assay [6] is SARS-CoV-2 M^pro (Severe acute respiratory syndrome coronavirus 2, UniProt P0DTD1). The assay is classed as binding.
Where [7] appears, read: 8 µM protein, 4 mM DTT, ligand 12.5 µM (62: 25 µM), up to two ligands per dimer.

Like-named read-outs stand apart in the source and are kept apart here. Peptide text beside a SMILES is read from it. * marks the point of attachment. Cbz = O=C(OCc1ccccc1)*

On to `COc1ccc2c(O[C@@H]3C[C@H]4C(=O)N[C@]5(C(=O)NS(=O)(=O)C6CC6)C[C@H]5/C=C\CCCCN(C)C(=O)[C@@H]4C3)cc(-c3nc(C(C)C)cs3)nc2c1C` [compound 24, simeprevir], for which the inhibition at 20 µM in assay [1] was greater than 60%.
In the case of `CCOC(=O)/C=C/[C@H](C[C@@H]1CCNC1=O)NC(=O)[C@@H](CC(=O)[C@@H](NC(=O)c1cc(C)on1)C(C)C)Cc1ccc(F)cc1` [compound 65, rupintrivir], the IC50 in assay [2] is greater than 100 µM. Further, in assay [3], the “activity against EV-A71 3C protease” value is “potent inhibition”. Also, the “activity against EV-A71 2A protease” value in assay [4] was “inactive”.
Compound `CN(C)C(=O)COC(=O)Cc1ccc(OC(=O)c2ccc(NC(=N)N)cc2)cc1` [compound 39, camostat] came in with an IC50 in assay [1] greater than 20 µM.
For `CCCC[C@H](NC(=O)[C@@H]1[C@@H]2[C@H](CN1C(=O)[C@@H](NC(=O)NC1(CS(=O)(=O)C(C)(C)C)CCCCC1)C(C)(C)C)C2(C)C)C(=O)C(=O)NC1CC1` [compound 29, narlaprevir], the IC50 in assay [3] and in assay [4] was greater than 20 µM throughout. Further, the inhibition at 20 µM in assay [1] is greater than 60%.
In assay [1], `Cc1cccc(C)c1OCC(=O)N[C@@H](Cc1ccccc1)[C@@H](O)C[C@H](Cc1ccccc1)NC(=O)[C@H](C(C)C)N1CCCNC1=O` [compound 10, lopinavir] registered an IC50 greater than 20 µM.
`CC(C)C[C@@H](C=O)NC(=O)[C@H](CC(C)C)NC(=O)[C@H](CC(C)C)NC(=O)OCc1ccccc1` [compound 43, MG-132] (Cbz-Leu-Leu-Leu-aldehyde): the IC50 in assay [3] and in assay [4] was greater than 20 µM each time. Further, the inhibition at 20 µM in assay [1] is greater than 60%.
On to `CC(C)[C@H](NC(=O)OCc1ccccc1)C(=O)N[C@H](C=O)Cc1ccccc1` [compound 57, calpain inhibitor III] (Cbz-Val-Phe-aldehyde), for which the IC50 in assay [1] is greater than 20 µM.
For GC-376 [compound 64], the EC50 in assay [5] (plaque assay) is greater than 20 µM. Besides, the “activity against EV-A71 3C protease” value in assay [3] is recorded as “potent inhibition”. Moreover, the “activity against EV-A71 2A protease” value in assay [4] is “inactive”.
Regarding calpain inhibitor II [compound 61], the EC50 in assay [5] (plaque assay) is greater than 20 µM. Also, in assay [6] (setting [7]), the “binding stoichiometry by native MS” value is “one drug per protomer”.
`CC(C)(C)NC(=O)N[C@H](C(=O)N1C[C@H]2[C@@H]([C@H]1C(=O)NC(CC1CCC1)C(=O)C(N)=O)C2(C)C)C(C)(C)C` (stereo partly shown) [compound 28, boceprevir]: the EC50 in assay [5] is greater than 20 µM. For the same compound, the IC50 in assay [3] and in assay [4] was greater than 20 µM throughout. Besides, the inhibition at 20 µM in assay [1] was greater than 60%. Moreover, the “binding stoichiometry by native MS” value in assay [6] is listed as “one drug per protomer”.
calpain inhibitor XII [compound 62]: in assay [5] (plaque assay), the EC50 was greater than 20 µM. The “binding stoichiometry by native MS” value in assay [6] (setting [7]) was “one drug per protomer”.
